Assay results taken from patent publication US5300672A (priority 1992, dated 1994).
Converted amounts (≈) assume the structure as drawn. Like-named read-outs stand apart in the source and are kept apart here.

Assays:
[1] = test system: Erysiphe graminis (f. sp. tritici); experiment: whole plant or invertebrate; type: in vivo; conditions: Blumeria graminis; read-out: % Control WPM
Escherichia coli = experiment: Broth two-fold serial dilution MIC test (Table 3), E.c; type: cell-based; conditions: gram negative, dilution series 500 to 4 ppm
Text: (§1) A minimum inhibitory concentration (MIC) value is obtained using a broth, two-fold serial dilution test performed as follows: A stock solution or dispersion of the test compound, typically at a concentration of 1%, is made in a 5:3:2 solvent solution of acetone, methanol, and water. A volume of the stock solution is dispensed into culture media to give an initial starting test concentration of 500 ppm compound.
(§2) When the test is ready to be done, each vessel in the dilution series, except the first vessel, contains an equal volume of compound free broth. The first vessel contains twice the volume of broth with the starting concentration of test compound. One half of the broth from the first vessel is transferred to the second vessel. After being mixed, one half the resulting volume is removed from the second vessel and transferred to the third vessel. The entire cycle is repeated sufficiently to give a series of concentrations amounting to 500, 250, 125, 63, 31, 16, 8, and 4 ppm, respectively.
(§3) Each vessel is then inoculated with a cell suspension of the appropriate test organism. Bacteria are grown in broth and fungi on agar slants for a time and at a temperature appropriate to the species being tested. At the end of the growth period, the broth is vortexed to disperse the cells. In the case of fungi, the spores are harvested by pipetting water onto the slant and dislodging the spores with a sterile loop. The cell/spore suspension is standardized by controlling incubation time, temperature, and the volume of the diluent. The suspension is then used to inoculate the vessels containing the broth compound. The vessels are then incubated at the appropriate temperature. After the incubation, the vessels are examined for growth/no growth. The minimum inhibitory concentration (MIC) is defined as the lowest concentration of compound that results in complete inhibition of growth of the test organism.
Escherichia coli (E.c), gram negative

Piricularia oryzae = experiment: whole plant or invertebrate; type: in vivo; conditions: Pyricularia oryzae; for pest or weed control at 200 ppm: read-out: % Control RB, application rate 200 ppm
Pseudomonas fluorescens [2] = experiment: Alternate Minimum Inhibitory Concentrations Test (Table 4), Ps.fl; type: cell-based; conditions: Pseudomonas fluorescens, read-out: MIC Ps.fl
Summary of the method: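 Broth microdilution MIC in TSB: compound (from acetone stock) serially diluted 1:1 from 250 ppm to 0.8 ppm, inoculated with diluted 24 h culture. After 3 days at 30 °C, the lowest concentration with no growth was recorded as MIC.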

Staphylococcus aureus = experiment: Broth two-fold serial dilution MIC test (Table 3), S.a; type: cell-based; conditions: gram positive, dilution series 500 to 4 ppm
Text: as §1, §2, §3
Staphylococcus aureus (S.a), gram positive

Aspergillus niger = experiment: Broth two-fold serial dilution MIC test (Table 3), A.n; type: cell-based; conditions: dilution series 500 to 4 ppm
Text: as §1, §2, §3

Phytophthora infestans = experiment: whole plant or invertebrate; type: in vivo; conditions: Phytophthora infestans, in Solanum lycopersicum, 96 h; for pest or weed control at 200 ppm: read-out: % Control TLB, application rate 200 ppm
[3] = test system: Puccinia recondita (f. sp. tritici Races PKB and PLD); experiment: whole plant or invertebrate; type: in vivo; conditions: Puccinia recondita, 240 h; read-out: % Control WLR
Pseudomonas aerugenosa = experiment: Broth two-fold serial dilution MIC test (Table 3), Ps.ae; type: cell-based; conditions: gram negative, dilution series 500 to 4 ppm
Text: as §1, §2, §3
Pseudomonas aerugenosa (Ps.ae), gram negative

Pseudomonas fluorescens [4] = experiment: Broth two-fold serial dilution MIC test (Table 3), Ps.fl; type: cell-based; conditions: gram negative, dilution series 500 to 4 ppm
Text: as §1, §2, §3
Pseudomonas fluorescens (Ps.fl), gram negative

[5] = test system: Pseudoperonospora cubensis; experiment: whole plant or invertebrate; type: in vivo; conditions: Pseudoperonospora cubensis, in Cucumis sativus, 168 h; read-out: % Control CDM
Aureobasidium pullulans = experiment: Broth two-fold serial dilution MIC test (Table 3), A.p; type: cell-based; conditions: dilution series 500 to 4 ppm
Text: as §1, §2, §3
Aureobasidium pullulans (A.p)

[6] = test system: Pellicularia filamentosa (f. sp. sasiki); experiment: whole plant or invertebrate; type: in vivo; conditions: 120 h; read-out: % Control RSB
Pythium ultimum = Pythium ultimum in vitro Fungitoxicity Assay in liquid culture; type: cell-based, Pythium ultimum (ATCC 26083); conditions: Globisporangium ultimum; mycelial dry weight, 48 h at 25° C., shaking at 60 rpm; read-out: EC 50
Experimental: Selected compounds of Examples 1-120 were subjected also to the following in vitro fungitoxicity assay against Pythium ultimum in a liquid culture, with the results as indicated in Table 6.
Pythium ultimum Fungitoxicity Assay
A dilution series of the test compound was prepared in dimethylsulfoxide, and 0.1 ml of each dilution was added to 19.9 ml of a liquid asparagine-sucrose medium (D. C. Erwin and K. Katznelson (1971), Can. J. Microbiol. 7, 15) in 9 cm diameter petri dishes to give the desired final concentrations of test compound. Plates were inoculated with mycelial plugs, 7 mm diameter, taken from the growing edge of 48 h old cultures of Pythium ultimum, (ATCC 26083), grown on potato dextrose agar. Two replicate plates were used for each treatment. The increase in mycelial dry weight was determined after growth for 48 h at 25° C. with shaking at 60 rpm. EC50 values were calculated from dose response curves.

[7] = Table 4 alternate test, 250 ppm to 0.8 ppm in TSB, 72 hours, 30° C.
[8] = read-out: % Control TLB, application rate 100 ppm

Structure (SMILES) | pest or weed control at 200 ppm [1] [%] | MIC (Escherichia coli) [µg/mL] | pest or weed control at 200 ppm (Piricularia oryzae) [%] | MIC (Pseudomonas fluorescens [2]; [7]) [µg/mL] | MIC (Staphylococcus aureus) [µg/mL] | MIC (Aspergillus niger) [µg/mL] | pest or weed control at 200 ppm (Phytophthora infestans) [%] | MIC (Pseudomonas aerugenosa) [µg/mL] | MIC (Pseudomonas fluorescens [4]) [µg/mL] | MIC (Aureobasidium pullulans) [µg/mL] | pest or weed control at 100 ppm [6] [%] | EC50 (Pythium ultimum) [µg/mL] | pest or weed control at 200 ppm [3] [%] | other results
CCCCCCCCNC(=O)/C=C\SC(=O)N(c1ccccc1)c1ccccc1 [Compound 41, N-octyl-cis-3-(diphenylaminocarbonylthio)acrylamide] | 0 | > 500 | 0 | > 250 | ≥ 500 | > 500 | 0 | > 500 | > 500 | > 500 | 0 |  |  | pest or weed control at 25 ppm [3]: 100%; pest or weed control at 200 ppm [5]: 0%
CCCCCCCCNC(=O)/C=C\SC(=O)c1nccc2ccccc12 [Compound 73, N-octyl-cis-3-[(1-isoquinoline)carbonylthio]acrylamide] | 0 |  | 0 | > 250 |  |  | 0 |  |  |  |  | 8.4 (≈ 22.7 µM) | 25 | pest or weed control at 200 ppm [6]: 0%
CCCCCCCCNC(=O)/C=C\SC(=O)c1ccc(N=C=S)cc1 [Compound 48, N-octyl-cis-3-[(4-isothiocyanobenzoyl)thio]acrylamide] |  |  |  | > 250 |  |  |  |  |  |  |  | 8.2 (≈ 21.8 µM) |  | pest or weed control at 100 ppm (Phytophthora infestans; [8]): 0%
O=C(/C=C\SC(=O)c1ccccc1)NCCN1CCOCC1 [Compound 116, N-[2-(4-morpholine)ethyl]-cis-3-(benzoylthio)acrylamide] | 0 |  |  | > 250 |  |  | 0 |  |  |  |  | 10.3 (≈ 32.1 µM) | 0 | pest or weed control at 12 ppm (Piricularia oryzae; read-out: % Control RB, application rate 12 ppm): 50%; pest or weed control at 200 ppm [5]: 0%
CCCCCCCCNC(=O)/C=C\SC(=O)c1ccc(CCCC)cc1 [Compound 115, N-octyl-cis-3-[(4-butylbenzoyl)thio]acrylamide] |  | > 500 |  |  | > 500 | > 500 | 0 | > 500 | > 500 | ≥ 250 |  |  |  | MIC (Pseudomonas fluorescens [2]; 72 h): > 250 µg/mL
CCCCCCCCNC(=O)/C=C\SC(=O)C1=CCCCC1 [Compound 9, N-octyl-cis-3-[(1-cyclohexene)carbonylthio]acrylamide] |  | > 500 |  |  | > 500 | > 500 |  | > 500 | > 500 | < 4 | 0 |  |  | pest or weed control at 100 ppm [1]: 0%; pest or weed control at 100 ppm (Piricularia oryzae; read-out: % Control RB, application rate 100 ppm): 90%; pest or weed control at 100 ppm (Phytophthora infestans; read-out: % Control TLB): 90%; pest or weed control at 100 ppm [3]: 0%
CCCCCCCCNC(=O)/C=C\SC(=O)c1ccc(Br)cn1 [Compound 53, N-octyl-cis-3-[(5-bromo-2-pyridine)carbonylthio]acrylamide] |  |  |  | > 250 |  |  |  |  |  |  | 0 | 10.2 (≈ 25.5 µM) |  | pest or weed control at 100 ppm [1]: 0%; pest or weed control at 100 ppm (Phytophthora infestans; [8]): 0%; pest or weed control at 100 ppm [3]: 0%
CCCCCCCCNC(=O)/C=C\SC(=O)c1ccc2ccccc2n1 [Compound 76, N-octyl-cis-3-[(2-quinoline)carbonylthio]acrylamide] | 0 |  | 0 | > 250 |  |  | 0 |  |  |  |  | 13.2 (≈ 35.6 µM) | 0 | pest or weed control at 200 ppm [6]: 0%
